Data: US20050197336A1 (Miikana Therapeutics Corporation, priority 2004, published 2005)

How the values were obtained:
[1] = tested on: MCF7 cells; test: Whole cell cytotoxicity assay: Sulforhodamine B; type: cell-based, human; conditions: Homo sapiens; compound at 100 μM; MCF7 cell growth; 48 hours with drug; SRB staining
Procedure: The following procedure can be found on the Developmental Therapeutics Program NCI/NIH web site at http://dtp.nci.nih.gov/brancehes/btb/ivclsp.html.
1. Human tumor cell lines of HT29, A549 and MCF7 are grown in DMEM containing 10% fetal bovine serum and 2 mM L-glutamine. Cells are plated in a 96 well plate at a density of 5000 cells per well in 100 μL of growth medium and incubated at 37° C., 5% CO2, for 24 hours prior to the addition of experimental compounds.
2. Experimental drugs are solubilized in DMSO for a final concentration of 20 mM immediately prior to use. Drugs are further diluted in growth media for a total of nine drug concentrations and a growth control. At the 24 hour time point, one plate of cells is fixed in situ with TCA as a measurement of the cell population at time zero, or the time of drug addition.
3. The plates are further incubated with drug for an additional 48 hours.
4. The cells are fixed in situ by gently aspirating off the culture media and then adding 50 μL of ice cold 10% TCA per well and incubated at 4° C. for 60 minutes. The plates are washed with tap water five times and allowed to air dry for 5 minute.
5. 50 μL of a 0.4% (w/v) Sulforhodamine B solution in 1% (v/v) acetic acid is added per well and incubated for 30 minutes at room temperature.
6. Following staining, plates are washed five times with 1% acetic acid to remove any unbound dye and then allowed to air dry for 5 minutes.
7. Stain is solubilized with 100 μL of 10 mM Tris pH 10.5 per well and placed on an orbital rotator for 5 minutes.
8. Absorbance is read at 570 nm.

[2] = tested on: Histone deacetylase (HDAC), HeLa cell nuclear extract; test: In vitro fluorescent histone deacetylase assay (Biomol kit, HeLa cell nuclear extract); type: biochemical; conditions: compound at 100 μM; HeLa cell nuclear extract as HDAC source; substrate 50 μM; 10 min at room temperature
Procedure: Histone deacetylase (HDAC) activity assays were performed using the HDAC fluorescent activity assay/drug discovery kit (Biomol Research Laboratories, Plymouth Meeting, Pa.) essentially according to the manufacturer's instructions. The included HeLa cell nuclear extract, which contains a mosaic of HDAC enzymes and other nuclear factors, was used as the source of HDAC activity. The final substrate concentration in the assay mixture was 50 μM. The reaction was allowed to proceed for 10 min at room temperature before stopping the reaction. Test compounds were prepared as 20 mM stock solutions in DMSO (Molecular Biology grade, Sigma-Aldrich Co. St. Louis, Mo.) and stored at −70° C. Serial dilutions of test compounds were prepared in assay buffer immediately prior to testing. DMSO was determined in a separate trial to have no significant effect on the activity of this assay at concentrations up to 5%; the final DMSO concentration in the wells was no more than 2% and therefore DMSO effects were safely neglected. Assays were performed in white polystyrene 96-well half-area assay plates (Corning, Corning, N.Y.) and measured on a Wallace 1420 fluorescent plate reader (Wallac Oy, Turku, Finland) with an excitation wavelength of 355 nm, an emission wavelength of 460 nm, and a 1 sec signal averaging time.

Compound	inhibition at 100 µM [1] [%]	% inhibition HDAC @ 100 μM [2] [%]
CS(=O)(=O)c1ccc(S(=O)(=O)N2CCN(c3ncc(C(=O)NO)s3)CC2)cc1 [Example 19, 2-[4-(4-methylsufonylphenylsulfonyl)-piperazin-1-yl]-thiazole-5-carboxylic acid hydroxyamide]	76.5	99
O=C(NO)c1cnc(N2CCN(S(=O)(=O)c3ccc(F)c(F)c3)CC2)s1 [Example 36, 2-[4-(3,4-difluorophenylsulfonyl)-piperazin-1-yl]-thiazole-5-carboxylic acid hydroxyamide]	98.2	98
C=CCN(C)Cc1cccc(-c2ccc(S(=O)(=O)N3CCN(c4ncc(C(=O)NO)s4)CC3)cc2)c1.Cl [Example 79]	98	99
CCCCS(=O)(=O)N1CCN(c2ncc(C(=O)NO)s2)CC1 [Example 53, 2-[4-(n-butylsulfonyl)piperazin-1-yl]-thiazole-5-carboxylic acid hydroxyamide]	89.9	94
O=C(NO)c1cnc(N2CCN(S(=O)(=O)c3cccnc3)CC2)s1 [Example 49, 2-[4-(pyridine-3-sulfonyl)-piperazin-1-yl]-thiazole-5-carboxylic acid hydroxyamide]	95.4	85
CN1CCN(Cc2cccc(-c3ccc(S(=O)(=O)N4CCN(c5ncc(C(=O)NO)s5)CC4)cc3)c2)CC1 [Example 84]	96.7	100
Cc1ccc(S(=O)(=O)N2CCN(c3ncc(C(=O)NO)s3)CC2)cc1 [Example 4, 2-[4-(4-toluene-4-sulfonyl)-piperazin-1-yl]-thiazole-5-carboxylic acid hydroxyamide]	95.4	100
CN1CCOc2cc(S(=O)(=O)N3CCN(c4ncc(C(=O)NO)s4)CC3)ccc21 [Example 48, 2-[4-(N-methyl-2,3-dihydrobenzisoxazinylsulfonyl)-piperazin-1-yl]-thiazole-5-carboxylic acid hydroxyamide]	89.4	96
Cc1c(Cl)cccc1S(=O)(=O)N1CCN(c2ncc(C(=O)NO)s2)CC1 [Example 32, 2-[4-(3-chloro-2-methylphenylsulfonyl)-piperazin-1-yl]-thiazole-5-carboxylic acid hydroxyamide]	98.1	99
CC1CCN(Cc2cccc(-c3ccc(S(=O)(=O)N4CCN(c5ncc(C(=O)NO)s5)CC4)cc3)c2)CC1.Cl [Example 76]	98	99
COc1ccc(S(=O)(=O)N2CCN(c3ncc(C(=O)NO)s3)CC2)cc1 [Example 103, 2-[4-(4-Methoxybenzenesulfonyl)piperazin-1-yl]-thiazole-5-carboxylic acid hydroxyamide]	97.5	100
CCN(C)Cc1cccc(-c2ccc(S(=O)(=O)N3CCN(c4ncc(C(=O)NO)s4)CC3)cc2)c1 [Example 86]	97.8	99
O=C(NO)c1cnc(N2CCN(S(=O)(=O)c3ccccc3F)CC2)s1 [Example 34, 2-[4-(2-fluorophenylsulfonyl)-piperazin-1-yl]-thiazole-5-carboxylic acid hydroxyamide]	97.7	92
O=C(NO)c1cnc(N2CCN(S(=O)(=O)CCc3ccccc3)CC2)s1 [Example 94, 2-[4-(phenethylsulfonyl)-piperazin-1-yl]-thiazole-5-carboxylic acid hydroxyamide]	90.6	98
Cc1cccc(S(=O)(=O)N2CCN(c3ncc(C(=O)NO)s3)CC2)c1 [Example 22, 2-[4-(3-methylphenylsulfonyl)-piperazin-1-yl]-thiazole-5-carboxylic acid hydroxyamide]	98	100
CC(C)(C)c1ccc(S(=O)(=O)N2CCN(c3ncc(C(=O)NO)s3)CC2)cc1 [Example 25, 2-[4-(4-t-butylphenylsulfonyl)-piperazin-1-yl]-thiazole-5-carboxylic acid hydroxyamide]	90.1	98
O=C(NO)c1cnc(N2CCN(S(=O)(=O)c3ccc(-c4ccccc4Cl)cc3)CC2)s1 [Example 58, 2-{4-[(2′-chloro-1,1′-biphenyl-4-yl)sulfonyl]piperazin-1-yl}-1,3-thiazole-5-carboxylic acid hydroxyamide]	97.6	95
O=C(NO)c1cnc(N2CCN(S(=O)(=O)/C=C/c3ccccc3)CC2)s1 [Example 20, 2-[4-(trans-2-phenylethanelsulfonyl)piperazin-1-yl]-thiazole-5-carboxylic acid hydroxyamide]	97.9	97
CC(=O)Nc1ccc(-c2ccc(S(=O)(=O)N3CCN(c4ncc(C(=O)NO)s4)CC3)cc2)cc1 [Example 92]	88.8	100
O=C(NO)c1cnc(N2CCN(S(=O)(=O)c3ccc(-c4ccncc4)cc3)CC2)s1 [Example 72, 2-{4-[4-(pyridin-4-yl)phenylsulfonyl]piperazin-1-yl}-1,3-thiazole-5-carboxylic acid hydroxyamide]	84.5	98
O=C(NO)c1cnc(N2CCN(S(=O)(=O)c3ccc(-c4cccc(F)c4)cc3)CC2)s1 [Example 61]	92.2	95
O=C(NO)c1cnc(N2CCN(S(=O)(=O)c3ccc(Br)s3)CC2)s1 [Example 55, 2-{4-[(5-bromothien-2-yl)sulfonyl]piperazin-1-yl}-N-hydroxy-1,3-thiazole-5-carboxamide]	0	9
O=C(NO)c1cnc(N2CCN(S(=O)(=O)c3ccc4nsnc4c3)CC2)s1 [Example 46, 2-[4-(2,1,3-benzothiadiazole-5-sulfonyl)-piperazin-1-yl]-thiazole-5-carboxylic acid hydroxyamide]	77.3	98
CN(C)C(=O)c1ccc(-c2ccc(S(=O)(=O)N3CCN(c4ncc(C(=O)NO)s4)CC3)cc2)cc1 [Example 68, 2-[4-(4′-N,N-dimethylcarboxamido-1,1′-biphenylsulfonyl)piperazin-1-yl]-1,3-thiazole-5-carboxylic acid hydroxyamide]	84.7	99
O=C(NO)c1cnc(N2CCN(S(=O)(=O)c3ccc(-c4cccc(CN5CCCC5)c4)s3)CC2)s1 [Example 90, 2-(4-{5-[3-(pyrrolidin-1-ylmethyl)phenyl]thiophene-2-sulfonyl}piperazin-1-yl)-1,3-thiazole-5-carboxylic acid hydroxyamide]	98	99
O=C(NO)c1cnc(N2CCN(S(=O)(=O)c3ccc(-c4cccs4)cc3)CC2)s1 [Example 65, 2-{4-[(4-thien-2-ylphenyl)sulfonyl]piperazin-1-yl}-1,3-thiazole-5-carboxylic acid hydroxamide]	95	99
